In ChEMBL document CHEMBL3352582, “Protective effects of aloe-emodin on scopolamine-induced memory impairment in mice and H₂O₂-induced cytotoxicity in PC12 cells” (Bioorg Med Chem Lett, 2014):
Calls of active or inactive are those of the source. The calls are words filed in the database; no cut-off is given here.

Columns and labels:
Mus musculus [1] = assay: Neuroprotective effect in Kunming mouse assessed as reduction in scopolamine-induced escape latency at 0.1 mg/kg, po qd administered for 15 days followed by 1 hr prior to trial session for 6 days by Morris water maze test; format: functional, organism-based; parameters: dose 0.1 mg/kg
Mus musculus [2] = assay: Neuroprotective effect in Kunming mouse assessed as increase in scopolamine-induced reduction in time spent in target quadrant at 0.1 mg/kg, po qd administered for 15 days followed by 1 hr prior to trial session for 6 days measured at day 5 by Morris water maze test relative to sham control; format: functional, organism-based; parameters: dose 0.1 mg/kg
Mus musculus [3] = assay: Neuroprotective effect in Kunming mouse assessed as increase in scopolamine-induced reduction in time spent in platform crossing at 0.1 mg/kg, po qd administered for 15 days followed by 1 hr prior to trial session for 6 days measured at day 5 by Morris water maze test relative to sham control; format: functional, organism-based; parameters: dose 0.1 mg/kg
Mus musculus [4] = assay: Neuroprotective effect in Kunming mouse assessed as increase in scopolamine-induced reduction in SOD level in hippocampus at 0.1 mg/kg, po qd administered for 15 days followed by 1 hr prior to trial session for 6 days relative to control; format: functional, organism-based; parameters: dose 0.1 mg/kg
Mus musculus [5] = assay: Neuroprotective effect in Kunming mouse assessed as increase in scopolamine-induced reduction in GPx level in hippocampus at 0.1 mg/kg, po qd administered for 15 days followed by 1 hr prior to trial session for 6 days relative to control; format: functional, organism-based; parameters: dose 0.1 mg/kg
Mus musculus [6] = assay: Neuroprotective effect in Kunming mouse assessed as reduction in scopolamine-induced increase in MDA level in hippocampus at 0.1 mg/kg, po qd administered for 15 days followed by 1 hr prior to trial session for 6 days relative to control; format: functional, organism-based; parameters: dose 0.1 mg/kg
Mus musculus [7] = assay: Neuroprotective effect in Kunming mouse assessed as reversal of scopolamine-induced increase in AChE activity in hippocampus at 0.1 mg/kg, po qd administered for 15 days followed by 1 hr prior to trial session for 6 days; format: functional, organism-based; parameters: dose 0.1 mg/kg
Mus musculus [8] = assay: Neuroprotective effect in Kunming mouse assessed as reversal of scopolamine-induced reduction in ACh level in hippocampus at 0.1 mg/kg, po qd administered for 15 days followed by 1 hr prior to trial session for 6 days; format: functional, organism-based; parameters: dose 0.1 mg/kg
Mus musculus [9] = assay: Neuroprotective effect in Kunming mouse assessed as reduction in scopolamine-induced escape latency at 100 mg/kg, po qd administered for 15 days followed by 1 hr prior to trial session for 6 days by Morris water maze test; format: functional, organism-based; parameters: dose 100 mg/kg
Mus musculus [10] = assay: Neuroprotective effect in Kunming mouse assessed as reversal of scopolamine-induced effect on spatial memory performance at 100 mg/kg, po qd administered for 15 days followed by 1 hr prior to trial session for 6 days by Morris water maze test relative to sham control; format: functional, organism-based; parameters: dose 100 mg/kg
Mus musculus [11] = assay: Neuroprotective effect in Kunming mouse assessed as reduction in scopolamine-induced impairment in spatial learning and memory at 25 to 100 mg/kg, po qd administered for 15 days followed by 1 hr prior to trial session for 6 days measured at day 5 by Morris water maze test relative to sham control; format: functional, organism-based
Mus musculus [12] = assay: Neuroprotective effect in Kunming mouse assessed as increase in scopolamine-induced reduction in time spent in target quadrant at 50 to 100 mg/kg, po qd administered for 15 days followed by 1 hr prior to trial session for 6 days measured at day 5 by Morris water maze test relative to sham control; format: functional, organism-based
Mus musculus [13] = assay: Neuroprotective effect in Kunming mouse assessed as increase in scopolamine-induced reduction in time spent in platform crossing at 50 to 100 mg/kg, po qd administered for 15 days followed by 1 hr prior to trial session for 6 days measured at day 5 by Morris water maze test relative to sham control; format: functional, organism-based
Mus musculus [14] = assay: Neuroprotective effect in Kunming mouse assessed as increase in scopolamine-induced reduction in swim speed at 25 to 100 mg/kg, po qd administered for 15 days followed by 1 hr prior to trial session for 6 days measured at day 5 by Morris water maze test relative to sham control; format: functional, organism-based
Mus musculus [15] = assay: Neuroprotective effect in Kunming mouse assessed as increase in scopolamine-induced reduction in SOD level in hippocampus at 25 to 100 mg/kg, po qd administered for 15 days followed by 1 hr prior to trial session for 6 days relative to control; format: functional, organism-based
Mus musculus [16] = assay: Neuroprotective effect in Kunming mouse assessed as increase in scopolamine-induced reduction in GPx level in hippocampus at 25 to 100 mg/kg, po qd administered for 15 days followed by 1 hr prior to trial session for 6 days relative to control; format: functional, organism-based
Mus musculus [17] = assay: Neuroprotective effect in Kunming mouse assessed as reduction in scopolamine-induced increase in MDA level in hippocampus at 25 to 100 mg/kg, po qd administered for 15 days followed by 1 hr prior to trial session for 6 days relative to control; format: functional, organism-based
Mus musculus [18] = assay: Neuroprotective effect in Kunming mouse assessed as reversal of scopolamine-induced increase in AChE activity in hippocampus at 25 to 100 mg/kg, po qd administered for 15 days followed by 1 hr prior to trial session for 6 days; format: functional, organism-based
Mus musculus [19] = assay: Neuroprotective effect in Kunming mouse assessed as reversal of scopolamine-induced reduction in ACh level in hippocampus at 25 to 100 mg/kg, po qd administered for 15 days followed by 1 hr prior to trial session for 6 days; format: functional, organism-based
Mus musculus [20] = assay: Neuroprotective effect in Kunming mouse assessed as reversal of scopolamine-induced increase in AChE activity in hippocampus at 100 mg/kg, po qd administered for 15 days followed by 1 hr prior to trial session for 6 days relative to sham control; format: functional, organism-based; parameters: dose 100 mg/kg
Acetylcholinesterase [21] = target: T1, Acetylcholinesterase (Homo sapiens, UniProt P22303); assay: Inhibition of AChE (unknown origin) by Ellman's method
T1 sequence (P22303 whole entry): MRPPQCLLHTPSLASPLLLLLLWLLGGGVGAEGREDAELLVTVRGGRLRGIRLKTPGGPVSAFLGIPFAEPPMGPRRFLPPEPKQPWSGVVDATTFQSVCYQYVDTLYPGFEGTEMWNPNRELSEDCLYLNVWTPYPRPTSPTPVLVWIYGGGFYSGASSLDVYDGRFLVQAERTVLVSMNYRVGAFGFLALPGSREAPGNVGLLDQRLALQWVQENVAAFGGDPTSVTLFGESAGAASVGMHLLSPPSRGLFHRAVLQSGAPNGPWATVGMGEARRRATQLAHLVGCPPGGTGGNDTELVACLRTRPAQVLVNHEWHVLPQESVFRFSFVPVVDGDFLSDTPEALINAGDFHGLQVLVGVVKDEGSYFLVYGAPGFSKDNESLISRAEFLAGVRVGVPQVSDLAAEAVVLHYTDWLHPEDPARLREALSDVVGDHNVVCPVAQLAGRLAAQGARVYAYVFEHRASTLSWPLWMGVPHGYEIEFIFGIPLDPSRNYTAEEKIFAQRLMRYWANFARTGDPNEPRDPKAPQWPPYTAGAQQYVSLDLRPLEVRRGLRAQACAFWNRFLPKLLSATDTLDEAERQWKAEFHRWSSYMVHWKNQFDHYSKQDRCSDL

[22] = Cytotoxicity against rat PC12 cells at 1 to 20 ug/ml by MTT assay; format: cell-based; conditions: pc-12
[23] = Cytoprotective effect against H2O2-induced cell death in rat PC12 cells at 5 ug/ml incubated for 24 hrs prior to H2O2 challenge measured after 2 hrs by MTT assay; format: functional, PC-12
[24] = Cytoprotective effect against H2O2-induced cell death in rat PC12 cells at 10 ug/ml incubated for 24 hrs prior to H2O2 challenge measured after 2 hrs by MTT assay; format: functional, PC-12
[25] = Cytoprotective effect against H2O2-induced cell death in rat PC12 cells at 20 ug/ml incubated for 24 hrs prior to H2O2 challenge measured after 2 hrs by MTT assay; format: functional, PC-12
PC-12 [26] = assay: Inhibition of H2O2-induced NO production in rat PC12 cells incubated for 24 hrs prior to H2O2 challenge measured after 2 hrs relative to control; format: functional, cell-based
PC-12 [27] = assay: Inhibition of H2O2-induced NO production in rat PC12 cells at 5 ug/ml incubated for 24 hrs prior to H2O2 challenge measured after 2 hrs relative to control; format: functional
PC-12 [28] = assay: Inhibition of H2O2-induced NO production in rat PC12 cells at 10 ug/ml incubated for 24 hrs prior to H2O2 challenge measured after 2 hrs relative to control; format: functional
PC-12 [29] = assay: Inhibition of H2O2-induced NO production in rat PC12 cells at 20 ug/ml incubated for 24 hrs prior to H2O2 challenge measured after 2 hrs relative to control; format: functional
PC-12 [30] = assay: Inhibition of H2O2-induced LDH release in rat PC12 cells at 5 to 20 ug/ml incubated for 24 hrs prior to H2O2 challenge measured after 2 hrs relative to control; format: functional, cell-based
PC-12 [31] = assay: Inhibition of intracellular ROS generation in rat PC12 cells at 5 ug/ml incubated for 24 hrs prior to H2O2 challenge measured after 2 hrs by fluorescence assay relative to control; format: functional; conditions: values are per cent of control
PC-12 [32] = assay: Inhibition of intracellular ROS generation in rat PC12 cells at 10 ug/ml incubated for 24 hrs prior to H2O2 challenge measured after 2 hrs by fluorescence assay relative to control; format: functional; conditions: values are per cent of control
PC-12 [33] = assay: Inhibition of intracellular ROS generation in rat PC12 cells at 20 ug/ml incubated for 24 hrs prior to H2O2 challenge measured after 2 hrs by fluorescence assay relative to control; format: functional; conditions: values are per cent of control
Mus musculus [34] = assay: Neuroprotective effect in po dosed Kunming mouse assessed as reduction in scopolamine-induced escape latency administered qd for 15 days followed by 1 hr prior to trial session for 6 days by Morris water maze test; format: functional, organism-based
Mus musculus [35] = assay: Neuroprotective effect in po dosed Kunming mouse assessed as increase in scopolamine-induced reduction in time spent in target quadrant administered qd for 15 days followed by 1 hr prior to trial session for 6 days by Morris water maze test; format: functional, organism-based
Mus musculus [36] = assay: Neuroprotective effect in po dosed Kunming mouse assessed as increase in scopolamine-induced reduction in time spent in platform crossing administered qd for 15 days followed by 1 hr prior to trial session for 6 days by Morris water maze test; format: functional, organism-based
Acetylcholinesterase [37] = target: T1, Acetylcholinesterase; conditions: 40 ug/ml
Description: Inhibition of AChE (unknown origin) at 40 ug/ml by Ellman's method

PC-12 [38] = assay: Cytoprotective effect against H2O2-induced cell death in rat PC12 cells at 20 uM incubated for 24 hrs prior to H2O2 challenge measured after 2 hrs by MTT assay; format: functional, cell-based
PC-12 [39] = assay: Inhibition of H2O2-induced NO production in rat PC12 cells at 20 uM incubated for 24 hrs prior to H2O2 challenge measured after 2 hrs relative to control; format: functional, cell-based
PC-12 [40] = assay: Inhibition of H2O2-induced LDH release in rat PC12 cells at 20 uM incubated for 24 hrs prior to H2O2 challenge measured after 2 hrs relative to control; format: functional, cell-based

For `C/C=C1\[C@H]2C=C(C)C[C@]1(N)c1ccc(=O)[nH]c1C2`, the Activity (Mus musculus [1]) was “Active”, the Activity (Mus musculus [2]) was “Active” and the Activity (Mus musculus [3]) was “Active”. For the same compound, the Activity (Mus musculus [4]) was “Active”, the Activity (Mus musculus [5]) was “Active” and the Activity (Mus musculus [6]) was “Active”. The Activity (Mus musculus [7]) was “Active” and the Activity (Mus musculus [8]) was “Active”.
In the case of `O=C1c2cccc(O)c2C(=O)c2c(O)cc(CO)cc21` [ALOE-EMODIN], the Activity (Mus musculus [9]) is reported as “Active”, the Activity (Mus musculus [10]) is reported as “Active” and the Activity (Mus musculus [11]) is reported as “Active”. For the same compound, the Activity (Mus musculus [12]) was “Active”, the Activity (Mus musculus [13]) was “Active” and the Activity (Mus musculus [14]) was “Active”. The Activity (Mus musculus [15]) was “Active”, the Activity (Mus musculus [16]) was “Active” and the Activity (Mus musculus [17]) was “Active”. The Activity (Mus musculus [18]) was “Active”, the Activity (Mus musculus [19]) was “Active” and the Activity (Mus musculus [20]) was “inactive”. For the same compound, the IC50 (Acetylcholinesterase [21]) was 68 µM, the Activity [22] was “Non-toxic” and the Activity [23] was 72.9%. For the same compound, the Activity [24] was 81%, the Activity [25] was 88.7% and the inhibition (PC-12 [26]) was “Dose-dependent effect”. The inhibition at 5 µg/mL (PC-12 [27]) was 27.8%, the inhibition at 10 µg/mL (PC-12 [28]) was 46.4% and the inhibition at 20 µg/mL (PC-12 [29]) was 64.3%. The inhibition (PC-12 [30]) was “Active”, the response, % of control at 5 µg/mL (PC-12 [31]) was 195% and the response, % of control at 10 µg/mL (PC-12 [32]) was 165%. For the same compound, the response, % of control at 20 µg/mL (PC-12 [33]) was 149%, the Activity (Mus musculus [34]) was “Dose-dependent effect” and the Activity (Mus musculus [35]) was “Dose-dependent effect”. For the same compound, the Activity (Mus musculus [36]) was “Dose-dependent effect” and the inhibition (Acetylcholinesterase [37]) was 70%.
With VITAMIN E the Activity (PC-12 [38]) was “Active”, the inhibition (PC-12 [39]) was 76.2% and the inhibition (PC-12 [40]) was “Active”.
